Measurements: paper PMC9786881 (Viruses, 2022)

Target: RABV NΔ23^0 (nucleoprotein aa 24-450) (Rabies virus, UniProt Q8JXF6)
Assay type: binding, rabies virus (strain CVS-11)

CC[C@H](C)[C@H](NC(=O)[C@H](C)NC(=O)[C@H](CO)NC(=O)[C@@H]1CCCN1C(=O)[C@H](CC(N)=O)NC(=O)[C@@H](NC(=O)[C@H](Cc1ccccc1)NC(=O)[C@@H](NC(=O)[C@H](CCCCN)NC(=O)[C@H](CO)NC(=O)[C@H](CCSC)NC(=O)[C@H](CO)NC(=O)[C@H](C)NC(=O)CN)[C@@H](C)CC)C(C)C)C(=O)N[C@@H](CCCNC(=N)N)C(=O)N[C@@H](C)C(=O)NCC(=O)N[C@@H](CC(C)C)C(=O)N[C@@H](C)C(=O)N[C@@H](CC(=O)O)C(=O)N[C@@H](CC(C)C)C(=O)N[C@@H](CCC(=O)O)C(=O)N[C@@H](CCSC)C(=O)N[C@@H](C)C(=O)N[C@@H](CCC(=O)O)C(=O)N[C@@H](CCC(=O)O)C(=O)N[C@H](C(=O)N[C@H](C(=O)N[C@@H](CC(=O)O)C(=O)N[C@@H](CC(C)C)C(=O)N[C@H](C(=O)N[C@@H](CC(N)=O)C(=O)N[C@@H](CCCNC(=N)N)C(=O)N[C@@H](CC(N)=O)C(=O)N[C@H](C(=O)N[C@@H](CCC(=O)O)C(=O)N[C@@H](CC(=O)O)C(=O)N[C@@H](CC(N)=O)C(=O)N[C@@H](CCC(N)=O)C(=O)N[C@@H](C)C(=O)N[C@@H](Cc1c[nH]cn1)C(=O)N[C@@H](CC(C)C)C(=O)N[C@@H](CCC(N)=O)C(=O)N[C@@H](CSC1CC(=O)N(CCNC(=O)c2ccc3c(c2)C(=O)OC32c3ccc(O)cc3Oc3cc(O)ccc32)C1=O)C(=O)N[C@@H](CCC(=O)O)C(=O)O)[C@@H](C)CC)[C@@H](C)CC)C(C)C)[C@@H](C)O (stereo partly shown) [P42-G41C*]
half time of dissociation: 256 min
